In brackets after ≈: the same amount, converted by molar mass. Entries after “also recorded” stand apart in the source; their conditions may differ. Where two headings read alike, the source gives them in different places.
How the values were obtained:
Format in all cases: cell-based, human
[1] = tested on: A-375 malignant melanoma cells; assay: In vitro antitumor activity, A-375 melanoma
Source text: (§1) 1) in vitro tumor cell viability assays using MTT and SRB dye reaction endpoints.
(§2) Sulforhodamine B (SRB) Assay for Adherent Tumor Cells
(§3) Sulforhodamine B (SRB) is a protein binding aminoxanthene dye with two sulfonic acid groups. (Lillie, R. D., H. J. Conn's Biological Stains, 9th Ed., Baltimore; Williams & Wilkins, 1977.) It quantitates whole cell protein content by the intensity of dye staining and relates this to the number of viable cells. […] The SRB assay is used for cells which normally adhere to surfaces (in this case plastic culture flasks or petri dishes) as part of their requirement for growth and division in vitro. The SRB assay is currently used by the National Cancer Institute in the anticancer drug screening program. (Skehan, et al., J Natl Cancer Inst 82:1107-1112, 1990; Rubinstein, et al., J Natl Cancer Inst 82:1113-1118, 1990.) Methodologic comparisons have shown that SRB results are linear for the number of tumor cells over a 100-fold range, and for protein content determined by a modified Lowry method or Standard Bradford (Bradford, M., Anal Biochem 72:248-254, 1976) methods. […] (Lillie, R. D., H. J. Conn's Biological Stains, 9th Ed., Baltimore; Williams & Wilkins, 1977.)
(§4) Cell cultures of 10^3 -10^7 cells growing in 96-well plastic microtiter plates are fixed with 50% trichloroacetic acid (TCA) for 30 minutes at 4° C. The cells are then stained with 0.4% (w/v) sulforhodamine B (SRB) dissolved in 1% acetic acid. Unbound dye is removed by 4 washes with 1% acetic acid, and protein-bound dye is extracted with 10 mM unbuffered Tris® base [tris(hydroxymethyl)aminomethane]. The optical density (OD) of this extracted solution is measured at […] in a microtiter plate ultraviolet absorbance detector. Cell viability is expressed as percent of control by dividing the optical densities and multiplying the result by 100.
(§5) Microculture Tetrazolium (MTT) Assay for Tumor Cells
(§6) Tumors are disaggregated into single cell suspensions using mechanical, hypoosmotic, and/or enzymatic (trypsin) methods. The cells are plated at a concentration of 3-5×10^4 per […] well into plastic 96-well plates. Growth medium containing 5-10% (vol/vol) heat-inactivated fetal bovine serum and penicillin/streptomycin (both […]) are added prior to incubation at 37° C. for 6 days. Afterwards the medium containing the drug is removed, the cells are centrifuged in fresh medium or phosphate-buffered saline (pH 7.4). A tetrazolium dye, […]-2,5-diphenyl tetrazolium (MTT), is then added. (Mossman, T., J Immunol 65:55-63, 1983.) This dye forms a colored formazan product upon activation by mitochondrial reductases in viable cells. Typically, the formazan product is solubilized in acid-propanol or DMSO. The intensity of the color is proportional to viable cell numbers and this is quantitated by spectrophotometric absorbance at 570 nm on a micro ELISA plate reader. The results are calibrated in % control absorbance from untreated tumor cells. (Alley, et al., Cancer Res 48:589-601, 1988.)
(§7) Table 3 gives the potencies of the new aziridine-1-carboxamides in a panel of human and murine tumor cells in culture. The tumor cell lines in this table are selected to represent a range of histological and growth phenotypes. Their characteristics are described below.
4.0 The Human A-375 Malignant Melanoma Cell Line was also developed by Girard, et al. (Girard, et al., J Natl Cancer Inst 51(5):1417-1423, 1973) from a human with advanced melanoma. The modal chromosome number is 67 and it has a low plating (colony forming) efficiency of 0.7% when grown on agar. These cells also form rapidly growing tumors when injected subcutaneously into immunodeficient athymic (nu/nu) mice. (Girard, et al., J Natl Cancer Inst 51(5):1417-1423, 1973.) These cells are also used in the NCI drug screening panel. (Skehan, et al., J Natl Cancer Inst 82:1107-1112, 1990.)

[2] = tested on: OVCAR-3 ovarian carcinoma cells; assay: In vitro antitumor activity, OVCAR-3 ovarian; details: OVCAR3 ovarian
Source text: as §1, §2, §3, §4, §5, §6, §7
5.0 Human OVCAR-3 Ovarian Carcinoma was originally isolated by Hamilton, et al. Experimental model systems of ovarian cancer; applications to the design and evaluation of new treatment approaches. Seminar in Onocology, 11:285-298, 1984, from a patient with progressive adenocarcinoma of the ovary. This patient had relapsed after receiving a combination chemotherapy regimen containing cyclophosphamide, doxorubicin and cisplatin. […] It is also one of the standard human tumor cell lines used for screening new anticancer agents at the NCI. (Alley, et al., Cancer Res 48:589-601, 1988.)

[3] = tested on: 8226/S myeloma cells; assay: MTT growth inhibition, parental 8226 myeloma cells; details: for IC50: Table 5, Sensitive (parental) 8226
Method in brief: (§8)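 Parental 8226/S and imexon-resistant 8226/I-R myeloma cells (selected with imexon up to 3.25 mg/mL) were exposed to drug continuously for 10 days at 37 °C. Viability was measured by MTT absorbance at 570 nm relative to untreated controls. IC50 was taken as the concentration giving 50% growth inhibition, from at least 2 assays.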

[4] = tested on: 8226/I-R myeloma cells; assay: MTT growth inhibition, imexon-resistant 8226 myeloma cells; details: for IC50 / Fold Resistance of IC50 R/IC50 's: Table 5; for IC50: imexon-resistant 8226; for Fold Resistance of IC50 R/IC50 's: imexon-resistant vs sensitive 8226
Method in brief: as §8

[5] = Homo sapiens, OVCAR-3, read-out: IC50

With N#CC1CN1C(=O)Nc1cccc2ccccc12 (stereo not drawn) [AMP 423, 2-Cyanoaziridine-1-[N-(1-naphthyl)]carboxamide] the IC50 ([1]; Homo sapiens, read-out: IC50) was 1 mg/L (≈ 4.21 µM), the IC50 [2, 5] was 1.4 mg/L and the IC50 ([3]; Homo sapiens, read-out: IC50) was 1 mg/L (≈ 4.21 µM). For the same compound, the “Enhanced potency: decrease in IC50 against myeloma cell growth” value ([3]; compared with imexon) was greater than 40%, the IC50 ([4]; Homo sapiens, read-out: IC50) was 2.1 mg/L (≈ 8.85 µM) and the “Fold Resistance of IC50 R/IC50 's” value [4] was 2.1.

CC(=O)Oc1ccccc1NC(=O)N1CC1C#N (stereo not drawn) [AMP 424, 2-Cyanoaziridine-1-[N-(2-acetoxyphenyl)]carboxamide] showed an IC50 [1] greater than 10 mg/L, an IC50 [2] greater than 10 mg/L and an IC50 [3] greater than 100 mg/L. The “Antitumor effect” value ([3]; parental and imexon-resistant myeloma cells) was “no antitumor effects even at high concentrations” and the IC50 [4] was greater than 100 mg/L.

CC(=O)c1cccc(NC(=O)N2CC2C#N)c1 (stereo not drawn) [AMP 425, 2-Cyanoaziridine-1-[N-(3-acetylphenyl)]carboxamide] showed an IC50 ([1]; Homo sapiens, read-out: IC50) of 1.8 mg/L (≈ 7.85 µM), an IC50 [2, 5] of 2.23 mg/L and an IC50 ([3]; Homo sapiens, read-out: IC50) of 1.98 mg/L (≈ 8.64 µM). The “Potency relative to imexon” value ([3]; myeloma cells) was “roughly equal potency to imexon”, the “Cross-resistance with imexon” value ([4]; 8226 imexon-resistant vs parental) was “lack of significant (>50% IC50 change) cross-resistance with imexon; also recorded: no significant cross resistance” and the IC50 ([4]; Homo sapiens, read-out: IC50) was 2.2 mg/L (≈ 9.6 µM). The “Fold Resistance of IC50 R/IC50 's” value [4] was 1.1.

From US6297230A, “Cyanoaziridines for treating cancer” (priority 2000, dated 2001)
